Assay results taken from patent US20260256752A1, “HIGHLY WATER SOLUBLE SCHIFF BASE PRODRUGS OF BENZALDEHYDE ALLOSTERIC MODULATORS” (ILLEXCOR HOLDINGS, LLC, priority 2022, published 2026).
Entries after “also recorded” stand apart in the source; their conditions may differ.

Columns and labels:
[1] = ADME / bioavailability assessment
[2] = molecular target: T1, Hb (Homo sapiens, UniProt P69905); experiment: Occupancy/dose-dependent p50 shift in human non-sickle blood; format: biochemical; details: compared to Voxelotor at equivalent drug-Hb occupancy levels
T1 construct: as separate independent studies with non-sickle blood; from tissue; host or cells: non-sickling AA blood (red blood cells)
Protocol: Non-sickling human blood was incubated with test compounds at 0.25-2 mM concentrations at 37° C. for 1 hour in 96-well round bottom plates. At conclusion, RBCs were washed once with PBS, followed by lysis with deionized water. Approximately 100 μl aliquots of individual lysates were added to 3 mL of 0.1M potassium phosphate buffer, pH 7.0 in a cuvette and subjected to hemoximetry analysis using a Hemox™ Analyzer (TCS Scientific Corp.) as previously described. (Abdulmalik et al., 2020; Pagare et al., 2020) Change in p50 values (Δp50) was calculated by subtracting the p50 values of treated samples from the value of the control sample and expressing the difference as a percentage of control p50 values.

[3] = tested on: blood suspensions from humans with homozygous SCD; experiment: Oxygen-independent sickle inhibition under anoxia (100% nitrogen) in SS blood suspensions; format: cell-based, human
Protocol: All compounds (Comp 1-13) and comparator molecules (VZHE-039, PP-14, INN-310, and Voxelotor) were evaluated following established procedures (Abdulmalik et al., 2005, 2020; Pagare et al., 2020). Blood samples from individual donors with homozygous SCD (obtained with informed consent) were diluted using Hemox buffer solution with the addition of glucose (10 mM) and BSA (0.2%) to adjust hematocrit of the blood suspensions to 20%, which standardizes the procedure to normalize the ratio of RBCs to drug, for assay consistency and reproducibility. Briefly, blood suspensions were incubated under room air in the presence of various concentrations of test compounds (0-2 mM) at 37° C. for 1 hour in 96-well round bottom plates. Subsequently, the suspensions were incubated with a hypoxic gas mixture (2.5% Oxygen gas/balance Nitrogen gas) at 37° C. for up to 2 hours prior to fixation with 2% glutaraldehyde solution without exposure to air. The fixated blood aliquots were evaluated by microscopic morphological analysis (image analysis on Image J software) to identify the proportion of sickled and non-sickled RBCs, and sickle inhibition calculated based on the % change from negative control (DMSO).
To establish oxygen-independent sickle inhibition, the incubation chamber was subsequently opened and exposed to room air for 15 minutes to ensure complete re-oxygenation and reversal of the sickled cells to normal round cells. Reversal was confirmed by microscopy. The incubation chamber was then closed, and the assay was repeated with incubation in 100% nitrogen gas for 1 hour (for screening), or up to 2.5 h (for time-course studies), with collection and fixation of blood aliquots at defined intervals. Aliquot samples were again subjected to microscopic morphological analysis of bright field images to identify the proportion of sickled and non-sickled cells, and sickle inhibition calculated.

[4] = 14-day repeat-dose safety (clinical observations, histopathology) in rats; format: in vivo, male and female SD rats; details: for safety in non-clinical toxicology (in words): above anticipated therapeutic drug levels; for clinical or histopathologic changes after 14 days of exposure: rats, oral 100 mg/kg once daily for 14 days
Protocol: (§1) Repeat oral doses of each compound were administered by oral gavage for 14 days to male and female SD rats (n=3). […] Steady state exposures for the final dosing interval on Day 14 were similar to total compound exposure from single-dose PK.
(§2) Repeat doses of each compound were administered once daily as oral suspensions by gavage in 0.5% carboxy methylcellulose for 14 days at 100 mg/kg. Whole blood was collected at 7 time-points for up to 24 hours during the final dosing interval on Day 14. Clinical observations, body weights, and food consumption were recorded throughout the 14 day study. Clinical chemistry and hematologic parameters were assessed, and histopathology was performed on organs after 14 days of exposure to study drug.

[5] = Single-dose oral pharmacokinetics in rats; format: in vivo, male Sprague Dawley (SD) rats; details: rat whole blood; single oral dose 100 mg/kg
Protocol: Single-dose pharmacokinetics (PK) in male Sprague Dawley (SD) rats (n=4) were assessed for each compound, and the maximum or peak whole blood concentration and area under the curve are shown in Table 5.
Single doses of each compound were administered as oral suspensions by gavage in 0.5% carboxy methylcellulose at 100 mg/kg. Whole blood levels were collected for at least 72 hours after dose administration. Bioanalyses were performed with liquid chromatography-tandem mass spectrometry […].

[6] = 14-day repeat-dose oral pharmacokinetics in rats; format: in vivo, male and female SD rats; details: oral 100 mg/kg for 14 days, Day 14
Protocol: as §1, §2

[7] = most patients with SCD; cited from earlier work
[8] = female rats, read-out: Cmax [μM] female
[9] = male rats, read-out: Cmax [μM] male

T1 sequence (P69905 2-142 limits assumed): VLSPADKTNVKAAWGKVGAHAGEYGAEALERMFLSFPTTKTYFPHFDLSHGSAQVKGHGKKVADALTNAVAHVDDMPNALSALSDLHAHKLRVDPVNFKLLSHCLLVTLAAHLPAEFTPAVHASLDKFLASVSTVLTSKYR
T1 sequence (P68871 2-147 partner limits assumed): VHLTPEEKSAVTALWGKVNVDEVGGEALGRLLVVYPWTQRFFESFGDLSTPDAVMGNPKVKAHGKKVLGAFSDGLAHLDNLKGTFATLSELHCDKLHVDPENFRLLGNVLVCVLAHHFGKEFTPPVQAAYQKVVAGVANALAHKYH

SMILES	AUC0-∞ [μM*h] [5]	Cmax [5] [µM]	polymer destabilizing effects / sickle inhibition in anoxia (in words) [3]	AUC0-∞ [μM*h] female ([6]; female rats)	Cmax [6, 8] [µM]	AUC0-∞ [μM*h] male ([6]; male rats)	Cmax [6, 9] [µM]	other results
O=Cc1c(O)cccc1OCc1cccnc1 [Comp 1, 2-hydroxy-6-(pyridin-3-ylmethoxy)benzaldehyde]	17,415 μM*h	919	most potent polymer destabilizers discovered to date; also recorded: most potent and sustained polymer destabilizing effects observed to date	8,085 μM*h	534	10,490 μM*h	703	absorption, distribution, metabolism and elimination (ADME) properties (in words) [1]: acceptable absorption, distribution, metabolism and elimination (ADME) properties without metabolic lability; changes in p50 of Hb in human blood (in words) [2]: relatively weak changes in p50; safety in non-clinical toxicology (in words) [4]: without hepatotoxicity; clinical or histopathologic changes after 14 days of exposure [4]: No clinical or histopathologic changes
O=Cc1c(O)cccc1OCc1ccccn1 [Comp 2, 2-hydroxy-6-(pyridin-2-ylmethoxy)benzaldehyde]	19,822 μM*h	958	most potent polymer destabilizers discovered to date; also recorded: most potent and sustained polymer destabilizing effects observed to date	21,547 μM*h	1110	20,363 μM*h	1110	absorption, distribution, metabolism and elimination (ADME) properties (in words) [1]: acceptable absorption, distribution, metabolism and elimination (ADME) properties without metabolic lability; changes in p50 of Hb in human blood (in words) [2]: relatively weak changes in p50; safety in non-clinical toxicology (in words) [4]: without hepatotoxicity; clinical or histopathologic changes after 14 days of exposure [4]: No clinical or histopathologic changes; Cmax (ng/ml) female ([6]; female rats): 254,382 ng/ml
O=Cc1c(O)cccc1OCc1cncc(F)c1 [Comp 4, 2-((5-fluoropyridin-3-yl)methoxy)-6-hydroxybenzaldehyde]	3,360 μM*h	242						
O=Cc1c(O)cccc1OCc1ncccc1F [Comp 5, 2-((3-fluoropyridin-2-yl)methoxy)-6-hydroxybenzaldehyde]	12,047 μM*h	348		20,566 μM*h	993	17,073 μM*h	854	absorption, distribution, metabolism and elimination (ADME) properties (in words) [1]: acceptable absorption, distribution, metabolism and elimination (ADME) properties without metabolic lability; changes in p50 of Hb in human blood (in words) [2]: relatively weak changes in p50; safety in non-clinical toxicology (in words) [4]: without hepatotoxicity; clinical or histopathologic changes after 14 days of exposure [4]: No clinical or histopathologic changes
O=Cc1c(O)cccc1OCc1cccnc1F [Comp 6, 2-((2-fluoropyridin-3-yl)methoxy)-6-hydroxybenzaldehyde]		49						AUC0-∞ [5]: 728 µM·h
O=Cc1c(F)cc(F)cc1OCc1ccccn1 [Comp 9, 2,4-difluoro-6-(pyridin-2-ylmethoxy)benzaldehyde]			completely negates the polymer destabilization effects					
O=Cc1c(OCc2cccnc2)ccc(F)c1O [Comp 12, 3-fluoro-2-hydroxy-6-(pyridin-3-ylmethoxy)benzaldehyde]			significantly reduced the potency of polymer inhibition					
O=Cc1c(F)cc(F)cc1OCc1ncccc1F [Comp 13, 2,4-difluoro-6-((3-fluoropyridin-2-yl)methoxy)benzaldehyde]			completely negates the polymer destabilization effects					
COc1ccc(OCc2ccccn2)c(C=O)c1 [INN-310, reference compound]			only weak potency in anoxia					
O=Cc1c(O)cccc1OCc1ccccc1 [Reference A, 2-(benzyloxy)-6-hydroxybenzaldehyde, reference compound]			exhibits potent polymer destabilizing effects					bioavailability (in words) [1]: not bioavailable
CC(C)n1nccc1-c1ncccc1COc1cccc(O)c1C=O [Voxelotor, reference compound]			did not demonstrate any sickle inhibition	7,617 μM*h	548	6,760 μM*h	422	increase in Hb concentrations [7]: at least 1 g/dl

More lines, main results first:

AUC0-∞ [μM*h] [5]	Cmax [5] [µM]	SMILES	polymer destabilizing effects / sickle inhibition in anoxia (in words) [3]	AUC0-∞ [μM*h] female ([6]; female rats)	Cmax [6, 8] [µM]	AUC0-∞ [μM*h] male ([6]; male rats)	Cmax [6, 9] [µM]	other results
1,022 μM*h	76	O=Cc1c(O)cccc1OCc1ncccc1Cl [Comp 8, 2-((3-chloropyridin-2-yl)methoxy)-6-hydroxybenzaldehyde]						
3,011 μM*h	157	O=Cc1c(O)cccc1OCc1cncnc1 [Comp 10, 2-hydroxy-6-(pyrimidin-5-ylmethoxy)benzaldehyde]						
8,782 μM*h	394	O=Cc1c(O)cccc1OCc1cccc(CO)n1 [VZHE-039, reference compound]		12,188 μM*h	894	11,585 μM*h	753	clinical or histopathologic changes after 14 days of exposure [4]: Both clinical and histopathologic changes in the liver, including hepatocyte necrosis
